Measurements taken from PubChem BioAssay (NCI).
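Protocol summary: plate cells (96-well), add compound at 5 concentrations, incubate 48 h, interpolate endpoints linearly. GI50 marks 50% less growth. At the TGI there is no net growth.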

What was measured:
Assay in all cases: NCI anticancer screen, dose series, 48 h
[1] = test system: COLO 205 colon
[2] = test system: HCC-2998 colon
[3] = test system: SK-MEL-28 melanoma
[4] = test system: HS 578T breast
[5] = test system: SF-295 CNS
[6] = test system: A498 renal
[7] = test system: A549 NSCLC
[8] = test system: MDA-MB-231 breast
[9] = test system: SK-MEL-2 melanoma
[10] = test system: SNB-75 CNS

| SMILES | TGI [1] [µM] | TGI [2] [µM] | TGI [3] [µM] | TGI [4] [µM] | TGI [5] [µM] | TGI [6] [µM] | TGI [7] [µM] | TGI [8] [µM] | TGI [9] [µM] | TGI [10] [µM] | GI50 [1] [µM] | GI50 [2] [µM] | GI50 [3] [µM] | GI50 [4] [µM] | GI50 [9] [µM] | GI50 [6] [µM] | GI50 [7] [µM] | GI50 [8] [µM] | GI50 [10] [µM] | GI50 [5] [µM] |
| --- | --- | --- | --- | --- | --- | --- | --- | --- | --- | --- | --- | --- | --- | --- | --- | --- | --- | --- | --- | --- |
| COc1ccc2c(CC(=O)O)cc(=O)oc2c1 | > 100 | > 100 | > 100 | > 100 | > 100 | > 100 | > 100 | > 100 |  |  |  |  |  |  |  |  |  |  |  |  |
| C/C(=N\Nc1ccc2ccccc2n1)c1ccccc1O | > 100 |  | > 100 | > 100 | 37.2 | > 100 | > 100 | > 100 | > 100 | 24.7 |  |  |  |  |  |  |  |  |  |  |
| Nc1nc(=O)n(C2CC(O)C(O)C(CO)O2)cc1F (stereo unspecified) | > 100 | > 100 | > 100 |  | > 100 | > 100 | > 100 |  | > 100 | > 100 |  |  |  |  |  |  |  |  |  |  |
| COCC1C(=O)c2cc3c(cc2C12C=CC1(C=C2)OCCO1)OCO3 (stereo unspecified) | 38 |  | 28.1 |  | 27.9 |  | 28.9 |  | 24.5 | 28.9 |  |  |  |  |  |  |  |  |  |  |
| SC[C@@H]1COC[C@H](CS)S1 | > 100 | > 100 | > 100 |  | > 100 |  | > 100 | > 100 |  | > 100 |  |  |  |  |  |  |  |  |  |  |
| COc1cc(-c2cc(/C=C/C(=O)c3ccc4c(c3)OCO4)[nH]n2)cc(OC)c1OC | 3.85 | 3.54 | 7.34 | 78.7 |  | 15.4 | > 100 | > 100 | 28.9 |  | 1.87 | 1.95 | 2.48 | 3.71 | 10.3 | 2.76 | 4.32 | 3.5 |  |  |
| COC(=O)NNc1c([N+](=O)[O-])cnn(-c2ccccc2)c1=O | 6.02 | 9.72 | 7.05 | 6.98 | 8.37 | 78.2 | 28.2 |  | 11.5 | 19.5 |  |  |  |  |  |  |  |  |  |  |
| O=C(O)CNC(=O)c1ccccc1O | > 100 |  | > 100 | > 100 | > 100 | > 100 | > 100 | > 100 | > 100 | > 100 |  |  |  |  |  |  |  |  |  |  |
| CN(C)c1ccc(/C=C/C(=O)c2ccccc2)cc1Br | 34.5 | 37.5 | 30.5 |  | 45.7 | > 100 | > 100 |  | 44.5 | 45.7 |  |  |  |  |  |  |  |  |  |  |
| COc1ccc(NC(=O)CC/C(CC(=O)c2ccccc2Cl)=N\Nc2nnc(C)n2N)cc1 | > 100 | > 100 | > 100 |  | > 100 |  | > 100 |  | > 100 |  |  |  |  |  |  |  |  |  |  |  |
| COc1ccc(C(=O)/C(=N/Nc2ccccc2)c2ccc(OC)cc2)cc1 | > 100 | > 100 | > 100 |  | > 100 |  | > 100 |  | > 100 | > 100 |  |  |  |  |  |  |  |  |  |  |
| O=C(c1ccccc1)c1ccc(Cl)c([N+](=O)[O-])c1 | 19.9 |  | 19 | 95.3 | 34.5 | 30.9 | 40.5 | 11.7 | 6.89 | 18.9 | 5.01 |  | 5.59 | 17.5 | 2.96 | 16 | 16.3 | 3.61 | 4.74 | 17.8 |
